Experiments:
Cannabinoid receptor 2 = Cannabinoid receptor 2 (Homo sapiens, UniProt P34972); assay: CB1 & 2 Binding Assays; settings: pH 7.4; 30 °C
[1] = target: T1, Fatty-acid amide hydrolase 1 (Homo sapiens, UniProt O00519); assay: FAAH Activity Assay; settings: pH 7.6; 37 °C
T1 sequence (O00519 whole entry): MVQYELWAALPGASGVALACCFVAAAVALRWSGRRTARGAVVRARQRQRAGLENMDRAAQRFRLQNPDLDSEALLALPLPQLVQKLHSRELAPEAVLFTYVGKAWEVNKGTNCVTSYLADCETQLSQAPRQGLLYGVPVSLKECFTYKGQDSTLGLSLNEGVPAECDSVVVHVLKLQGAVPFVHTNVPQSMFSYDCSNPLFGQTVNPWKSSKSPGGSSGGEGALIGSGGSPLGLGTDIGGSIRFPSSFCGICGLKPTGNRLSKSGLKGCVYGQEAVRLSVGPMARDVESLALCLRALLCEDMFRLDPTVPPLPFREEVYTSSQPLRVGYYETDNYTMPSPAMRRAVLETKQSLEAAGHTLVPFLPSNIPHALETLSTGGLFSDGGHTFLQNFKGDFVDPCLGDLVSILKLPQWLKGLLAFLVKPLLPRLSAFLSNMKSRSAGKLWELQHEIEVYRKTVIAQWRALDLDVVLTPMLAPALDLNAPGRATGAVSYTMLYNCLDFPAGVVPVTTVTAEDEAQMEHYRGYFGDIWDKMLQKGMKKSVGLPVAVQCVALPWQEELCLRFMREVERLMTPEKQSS
Procedure: In this assay, 0.05 Units of hFAAH was pre-incubated for 30 min at 37 C with 2 uL of 11a, 11b, 11f at different concentrations (0.01 - 100 uM) or vehicin 196 uL of assay buffer (10 mM Tris-HCl, 1 mM EDTA (pH 7.6) and 0.1% w/v fatty acid-free BSA). 2 uL of AEA/[3H]-AEA mixture was added to the solution (final concenttion in assay was 10 nM) and incubated for 15 min at 37 C.

Cannabinoid receptor 1 = Cannabinoid receptor 1 (Homo sapiens, UniProt P21554); assay: CB1 & 2 Binding Assays; settings: pH 7.4; 30 °C
Sequence of Cannabinoid receptor 1 (P21554 whole entry): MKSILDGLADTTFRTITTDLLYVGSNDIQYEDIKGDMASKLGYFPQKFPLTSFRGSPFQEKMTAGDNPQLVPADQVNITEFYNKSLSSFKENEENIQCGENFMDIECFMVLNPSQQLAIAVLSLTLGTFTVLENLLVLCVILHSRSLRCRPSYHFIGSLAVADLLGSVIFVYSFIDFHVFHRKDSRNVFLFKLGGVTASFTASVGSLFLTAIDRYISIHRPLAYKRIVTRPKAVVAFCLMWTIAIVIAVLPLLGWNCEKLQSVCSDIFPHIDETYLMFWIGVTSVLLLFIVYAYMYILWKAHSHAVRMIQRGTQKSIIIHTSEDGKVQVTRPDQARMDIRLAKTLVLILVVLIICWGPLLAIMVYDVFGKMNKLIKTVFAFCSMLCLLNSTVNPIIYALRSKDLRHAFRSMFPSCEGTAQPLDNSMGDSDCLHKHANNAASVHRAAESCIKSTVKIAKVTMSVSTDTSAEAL

Sequence of Cannabinoid receptor 2 (P34972 whole entry): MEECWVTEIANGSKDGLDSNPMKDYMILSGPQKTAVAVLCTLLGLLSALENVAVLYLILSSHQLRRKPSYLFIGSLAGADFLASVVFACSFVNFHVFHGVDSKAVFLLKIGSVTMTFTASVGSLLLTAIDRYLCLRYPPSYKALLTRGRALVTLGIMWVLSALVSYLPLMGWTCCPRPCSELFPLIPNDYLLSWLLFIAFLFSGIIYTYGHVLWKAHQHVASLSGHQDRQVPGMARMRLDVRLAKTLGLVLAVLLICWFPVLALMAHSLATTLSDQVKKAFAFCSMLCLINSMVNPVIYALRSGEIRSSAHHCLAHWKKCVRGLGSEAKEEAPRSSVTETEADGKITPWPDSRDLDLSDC

Structure (SMILES) | Ki (Cannabinoid receptor 2) | IC50 [1] | Ki (Cannabinoid receptor 1)
C=CCNC(=O)/C=C/CCC(=C)[C@@H]1CC(C)(C)[C@@H]1CCC(=C)C [(E)-N-Allyl-6-((1R,2R)-3,3-dimethyl-2-(3-methylbut-3-enyl)cyclobutyl)hepta-2,6-dienamide (11b)] | 0.68 µM | 2.7 µM | 
C=C(C)CC[C@@H]1[C@H](C(=C)CC/C=C/C(=O)NCCCl)CC1(C)C [(E)-N-(2-Chloroethyl)-6-((1R,2R)-3,3-dimethyl-2-(3-methylbut-3-enyl)cyclobutyl)hepta-2,6-dienamide (11c)] | 1.43 µM | > 10 µM | 
CCCC(C)(C)c1ccc2c(c1)OC(C)(C)[C@@H]1CC=C(C)C[C@@H]21 | 0.013 µM |  | 
C=C(C)CC[C@@H]1[C@H](C(=C)CC/C=C/C(=O)NCCC)CC1(C)C [(E)-6-((1R,2R)-3,3-Dimethyl-2-(3-methylbut-3-enyl)cyclobutyl)-N-propylhepta-2,6-dienamide (11a)] | 1.01 µM | 6.3 µM | 
C=C(C)CC[C@@H]1[C@H](C(=C)CC/C=C/C(=O)NCCc2ccc(O)c(O)c2)CC1(C)C [(E)-N-(3,4-Dihydroxyphenethyl)-6-((1R,2R)-3,3-dimethyl-2-(3-methylbut-3-enyl)cyclobutyl)hepta-2,6-dienamide (11f)] | 6.5 µM | > 10 µM | > 10 µM
C=C(C)CC[C@@H]1[C@H](C(=C)CC/C=C/C(=O)NCc2ccc(O)c(OC)c2)CC1(C)C [(E)-6-((1R,2R)-3,3-Dimethyl-2-(3-methylbut-3-enyl)cyclobutyl)-N-(4-hydroxy-3-methoxybenzyl)hepta-2,6-dienamide (11e)] | > 10 µM | 7.1 µM | > 10 µM
C=C1CC/C=C(\C)CC[C@@H]2[C@H]1CC2(C)C [β-humulene] |  | > 10 µM | > 10 µM

Reference: BindingDB's records for doi:10.1021/cb500177c (University of Bern, 2014)
